# Paper PMC3939009, “Thrombin inhibitory activity of some polyphenolic compounds” (Medicinal Chemistry Research, 2013)
# Biological target: human thrombin (Homo sapiens, UniProt P00734)
# Test: Amidolytic activity of thrombin (hydrolysis of chromogenic substrate D-Phe-Pip-Arg-pNA)
# Format: biochemical
# Parameters: Thrombin, also known as an active plasma coagulation factor II; purchased Sigma-Aldrich Chemical Co. (St. Louis, MO, USA) T7009; host or cells: purified from human plasma
# Conditions: at 375 μM substrate concentration; compounds 0.1–1,000 μM, preincubation 10 min 37 °C; read-out: IC50, amidolytic activity of human thrombin
# Procedure: All tested compounds were dissolved in 50 % DMSO to the initial concentration of 10 mM; other solutions of compounds were also prepared in 50 % DMSO (prepared in 50 mM TBS, pH 7.4). The final concentration of DMSO in thrombin samples was 5 %. To prepare thrombin control samples, the same volume of solvent (50 % DMSO prepared in 50 mM TBS, pH 7.4) was added as in the case of the compound volume and warmed for 10 min to 37 °C.
# To each reaction well, 40 μl of 3 mM chromogenic substrate was added. To initiate the chromogenic reaction, 280 μl of control thrombin (without tested compounds) or thrombin after preincubation with a polyphenolic compound to every reaction well in the same moment was added. The absorbance value was monitored every 12 s for 10 min. The maximal velocity of the reaction (V max, Δm OD/min) for each absorbance curve was determined. IC50 value (parameter) for every polyphenolic compound from inhibition curves was estimated.
compound,measurement,value
"O=c1c(O)c(-c2ccc(O)c(O)c2)oc2cc(O)cc(O)c12 [Quercetin, quercetin]",IC50,1500 nM
